Data: patent publication US7078059B2, “Treatment of bone diseases” (Shire Holdings AG, priority 2000, dated 2006)
Where “and” joins values, the source holds several entries; their conditions need not be identical. Equal entries are not always repeated. Entries after “also recorded” stand apart in the source; their conditions may differ. Where two headings read alike, the source gives them in different places.

Experiments:
[1] = tested on: osteoclast precursors in mouse bone marrow; details: LA number = ng/ml lanthanum; for Relative TRAP 5b activities, Mean ± SD: relative to mean of baseline group, with 1,25-dihydroxyvitamin D3, 6 days; for Combined results on osteoclast differentiation (relative TRAP 5b activity), Mean ± SD: tables 4-6 combined, number 18 (LA 100) or 12
Text: A method known as mouse bone marrow culture system is the one most widely used to study osteoclast differentiation. Originally, this method was developed by Takahashi et al. (1988a). Osteoclast precursors in mouse bone marrow can be induced to form multinucleated osteoclast-like cells (MNC) in the presence of either an active metabolite of vitamin D3 (1,25(OH)2D3) or parathyroid hormone (PTH). […] They form pits on bone or dentine slices (Takahashi et al. 1988a, Hattersley and Chambers 1989, Shinar et al. 1990); they express high levels of tartrate-resistant acid phosphatase (TRAP) and calcitonin receptors (Takahashi et al. 1988b, Shinar et al. 1990); and they respond to calcitonin (Takahashi et al. 1988a) and prostaglandin E2 (Collins and Chambers 1992). Thus, the method is an ideal one with which to study both stimulators and inhibitors of osteoclast differentiation.
In the original culture system, the osteoclast formation was determined after an 8-day culture. In bone marrow, both non-adherent osteoclast precursors and stromal cells are present, the latter of which are needed to support osteoclast formation. The number of osteoclasts formed is generally determined by counting the number of TRAP-positive MNC containing at least three nuclei (Takahashi et al. 1988a).
We have modified the original assay so that we culture 1×10^6 mouse marrow cells/ml for 6 days. […] Instead of counting of the number of differentiated osteoclasts formed, we measured the amount of TRAP liberated from osteoclasts into the culture medium using a fast, simple TRAP immunoassay (Halleen et al. 1999) presentation in the Annual Meeting of the American Society for Bone and Mineral Research, Sep. 30-Oct. 4, 1999, in St. Louis, Mo., USA.
8-10-week old mice were killed with CO2. Tibia and femora were dissected free from adhering soft tissues. The bone ends were cut off with a scalpel and the marrow was flushed with α-Minimal Essential Medium (α-MEM, Gibco BRL, Paisley, UK) supplemented with 100 IU/ml penicillin and 100 μg/ml streptomycin. A 10 ml syringe with a 27 gauge needle was used for flushing. Cells were centrifuged at 600×G for 10 minutes and the cell pellet was resuspended in -MEM containing 10% fetal calf serum. Cells were allowed to attach to plastic for 2 h at 37° C. in a 5% CO2 incubator to allow removal of monocytes and macrophages. Nonadherent cells were duly removed, and the […] bone marrow cells were cultured in 24-well plates (1×10^6 cells/well=1 ml) for 6 days. Half of the media were changed at day 3 and the treatments replaced. At the end of the culture, the plates were fixed with 2% paraformaldehyde in PBS for 20 minutes. Osteoclast formation was determined by measuring TRAP activity from the culture media using the novel TRAP immunoassay (vide infra), where we use a polyclonal TRAP antiserum prepared in rabbits against purified human bone TRAP. The TRAP antibody was bound to anti-rabbit IgG coated microtiter wells (Gibco BRL, Paisley, UK), and medium TRAP was then bound to the antibody. The activity of bound TRAP was measured in sodium acetate buffer using pNPP as substrate.
In this study, the effect of the lanthanum (III) ion on osteoclast differentiation in the presence of 1,25-dihydroxyvitamin D3 was tested. The following sample groups were included: • Baseline (including vehicle) • Control (Baseline without 1,25-dihydroxyvitamin D3) • Baseline+100 ng/ml lanthanum • Baseline+500 ng/ml lanthanum • Baseline+1000 ng/ml lanthanum • Baseline+5000 ng/ml lanthanum • Baseline+15000 ng/ml lanthanum
Six replicates were included in each group, and the test was performed twice. Baseline without 1,25-dihydroxyvitamin D3 was used as a control to show the test system allows inhibition of osteoclast differentiation to be detected.

mature osteoblasts = assay: In vitro bone formation assay (calcium deposition into bone nodules); format: cell-based, mouse; details: LA number = ng/ml lanthanum; for Effect on bone formation activity of mature osteoblasts, in words: lanthanum (III) / lanthanum (III) ion = all concentrations tested, 100 to 15,000 ng/ml, 17-estradiol 10^−10M; for Calcium deposition, Mean ± SD / Calcium deposition, replicates 1-6 / Calcium deposition, replicates 1-4 / Calcium deposition, replicates 1-8: calcium released from bone nodules after HCl extraction; for Calcium deposition, Mean ± SD / Calcium deposition, replicates 1-6 / Calcium deposition, replicates 1-4 / Calcium deposition, replicates 1-8 / Combined results on bone formation activity of mature osteoblasts (calcium released), Mean ± SD: Control = Baseline+10^−10M 17β-estradiol; for Combined results on bone formation activity of mature osteoblasts (calcium released), Mean ± SD: tables 13 and 14 combined, number 14
Procedure: The activity of mature osteoblasts can be determined by quantifying their ability to form mineralized bone matrix. This is done by demineralizing the formed bone matrix, and determining the amount of calcium released. Thus, this culture system fulfills requirements of an in vitro model useful for studying the bone formation activity of mature osteoblasts. […] At the end of the culture, the amount of calcium deposited during the culture period was determined, and the amount of bone formation (calcium deposition) calculated. […] Extracts of 50 μl were complexed with 1 ml determined o-cresol-phthalein-complexon. The colorimetric reaction was determined at 570 nm in a spectrophotometer. Absolute calcium concentrations were determined by comparison with a calibrated standard provided by the vendor. In this study, the effect of lanthanum carbonate on bone formation was tested. […] The amount of bone formation was determined by measuring the amount of calcium deposited into bone nodules formed by mature osteoblasts. The results are shown as the amount of calcium released (mmol/L) from the bone nodules after HCl extraction. The baseline values are too low to show the results using relative amounts as was done in the other assays.

[2] = tested on: mouse bone marrow derived osteoprogenitor cells; assay: In vitro osteoblast differentiation assay (cellular alkaline phosphatase); format: cell-based; details: LA number = ng/ml lanthanum; for Effect on osteoblast differentiation, in words: lanthanum (III) ion = 100-15000 ng/ml, 17-estradiol 10^−10 M; for Relative specific activities of intracellular alkaline phosphatase, Mean ± SD / Relative specific activities of intracellular alkaline phosphatase, replicates 1-8 / Relative specific activities of intracellular alkaline phosphatase, replicates 1-4 / Relative specific activities or intracellular alkaline phosphatase, Mean ± SD / Relative specific activities or intracellular alkaline phosphatase, replicates 1-6: relative to mean of baseline group, 8 days; for Relative specific activities of intracellular alkaline phosphatase, Mean ± SD / Relative specific activities of intracellular alkaline phosphatase, replicates 1-8 / Relative specific activities of intracellular alkaline phosphatase, replicates 1-4 / Relative specific activities or intracellular alkaline phosphatase, Mean ± SD / Relative specific activities or intracellular alkaline phosphatase, replicates 1-6 / Combined results on osteoblast differentiation (relative specific ALP activity), Mean ± SD: Control = Baseline+10^−10 M 17-estradiol; for Relative specific activities or intracellular alkaline phosphatase, Mean ± SD / Relative specific activities or intracellular alkaline phosphatase, replicates 1-6: second osteoblast differentiation assay; for Combined results on osteoblast differentiation (relative specific ALP activity), Mean ± SD: tables 8-10 combined, number 18
Text: We have established a culture model in which mouse bone marrow derived osteoprogenitor cells first proliferate and then differentiate to osteoblasts capable of forming mineralized bone nodules (Qu et al. 1998, Qu et al. 1999). We confirmed this by following the expression of several markers of the osteoblastic phenotype and by studying the morphology of cultures at light and electron microscopic level. […] Thus, this culture system fulfills requirements of an in vitro model useful for studying differentiation of osteoprogenitor cells into bone synthesizing osteoblasts. […] Animals were killed by cervical dislocation. Both femora were removed and the soft tissues were detached aseptically. Metaphyses from both ends were cut off and bone marrow cells were collected by flushing the diaphysis with culture medium: phenol red-free-α-modified essential medium (α-MEM (Gibco BRL, Paisley, UK)). […] The cells were cultured for 6 days and half of the media […] days. […] Cells were washed with warm PBS and adherent cells were detached using trypsin-EDTA. […] The test substances were added at the beginning of the secondary culture without estrogen, and every time when the medium was changed. The number of osteoblasts formed was determined by measuring cellular alkaline phosphatase (ALP) activity in the culture. […] Louis, Mo., USA), and overnight freezing. ALP activity was determined colorimetrically using p-nitrophenylphosphate as substrate at pH 9.7 and determining the optical density at 405 nm. In parallel, protein contents of the wells were determined by the BIO-RAD protein assay, and the specific ALP activity is expressed as units/mg protein. […] Osteoblast differentiation was determined by measuring cellular alkaline phosphatase (ALP) activities and total protein amounts from cell lysates. The ALP activities were divided with the corresponding protein amounts to obtain specific activities of ALP. The results are shown as relative specific activities obtained by dividing each individual value with the mean value of the baseline group.

[3] = first osteoclast differentiation assay
[4] = second osteoclast differentiation assay
[5] = preliminary bone formation assay
[6] = first osteoblast differentiation assay
[7] = preliminary osteoblast differentiation assay

| Compound | Effect on osteoclast differentiation, in words ([1]; vs baseline with 1,25-dihydroxyvitamin D3) | Relative TRAP 5b activities, Mean ± SD [1, 3] | Relative TRAP 5b activities, Mean ± SD [1, 4] | Combined results on osteoclast differentiation (relative TRAP 5b activity), Mean ± SD [1] | Effect on bone formation activity of mature osteoblasts, in words (mature osteoblasts) | Calcium deposition, Mean ± SD (mature osteoblasts; first bone formation assay) [mmol/L] | Calcium deposition, replicates 1-6 (mature osteoblasts; first bone formation assay) | Calcium deposition, Mean ± SD (mature osteoblasts; [5]) [mmol/L] | Calcium deposition, replicates 1-4 (mature osteoblasts; [5]) | Calcium deposition, Mean ± SD (mature osteoblasts; second bone formation assay) | Calcium deposition, replicates 1-8 (mature osteoblasts; second bone formation assay) | Combined results on bone formation activity of mature osteoblasts (calcium released), Mean ± SD (mature osteoblasts) [mmol/L] | Effect on osteoblast differentiation, in words [2] | Relative specific activities of intracellular alkaline phosphatase, Mean ± SD [2, 6] | Relative specific activities of intracellular alkaline phosphatase, replicates 1-8 [2, 6] | Relative specific activities of intracellular alkaline phosphatase, Mean ± SD [2, 7] | Relative specific activities of intracellular alkaline phosphatase, replicates 1-4 [2, 7] | Relative specific activities or intracellular alkaline phosphatase, Mean ± SD [2] | Relative specific activities or intracellular alkaline phosphatase, replicates 1-6 [2] | Combined results on osteoblast differentiation (relative specific ALP activity), Mean ± SD [2] |
| --- | --- | --- | --- | --- | --- | --- | --- | --- | --- | --- | --- | --- | --- | --- | --- | --- | --- | --- | --- | --- |
| O.O.O.O.O=C([O-])[O-].O=C([O-])[O-].O=C([O-])[O-].[La+3].[La+3] [LA 1000, lanthanum carbonate tetrahydrate] | decreases the formation of osteoclasts | 0.60 ± 0.25 | 0.69 ± 0.21 | 0.65 ± 0.23 (**) | stimulate bone formation | 1.29 ± 0.28 | 0.95 mmol/L and 1.66 mmol/L and 1.47 mmol/L and 1.41 mmol/L and 1.00 mmol/L and 1.25 mmol/L | 0.07 ± 0.05 | 0.10 mmol/L and 0 mmol/L and 0.11 mmol/L and 0.05 mmol/L | 1.14 ± 0.55(* mmol/L | 1.76 mmol/L and 0.02 mmol/L and 1.52 mmol/L | 1.20 ± 0.45 | No significant response; also recorded: do not decrease the formulation of osteoblasts | 0.94 ± 0.14 | 1.01 and 0.78 and 0.81 | 0.94 ± 0.19 | 0.69 and 1.13 and 0.92 and 1.01 | 0.88 ± 0.21 | 0.73 and 0.71 and 1.19 and 0.81 and 0.72 and 1.09 | 0.92 ± 0.17 |
| O.O.O.O.O=C([O-])[O-].O=C([O-])[O-].O=C([O-])[O-].[La+3].[La+3] [LA 5000, lanthanum carbonate tetrahydrate] | – | 0.44 ± 0.06(*) | 0.56 ± 0.27(*) | 0.50 ± 0.20 (***) | best responses | 1.46 ± 0.10 | 1.31 mmol/L and 1.55 mmol/L and 1.56 mmol/L and 1.52 mmol/L and 1.40 mmol/L and 1.39 mmol/L | 1.06 ± 0.66 | 0.59 mmol/L and 1.64 mmol/L and 0.39 mmol/L and 1.62 mmol/L | 1.47 ± 0.20(* mmol/L | 1.08 mmol/L and 1.63 mmol/L and 1.30 mmol/L | 1.47 ± 0.16 | inhibited | 0.53 ± 0.06(***) | 0.54 and 0.59 and 0.55 | 0.47 ± 0.03(***) | 0.42 and 0.46 and 0.50 and 0.48 | 0.41 ± 0.10(***) | 0.31 and 0.51 (2×) and 0.49 and 0.28 and 0.40 | 0.48 ± 0.09 (***) |
| O.O.O.O.O=C([O-])[O-].O=C([O-])[O-].O=C([O-])[O-].[La+3].[La+3] [LA 15000, lanthanum carbonate tetrahydrate] | – | 0.36 ± 0.27(*) | 0.25 ± 0.07(***) | 0.30 ± 0.19 (***) | best responses | 1.29 ± 0.21 | 1.46 mmol/L and 1.42 mmol/L and 1.56 mmol/L and 1.11 mmol/L (2×) and 1.08 mmol/L | 0.89 ± 0.66 | 1.48 mmol/L and 0.16 mmol/L and 0.50 mmol/L and 1.41 mmol/L | 1.40 ± 0.21(* mmol/L | 1.62 mmol/L and 1.18 mmol/L and 1.21 mmol/L | 1.35 ± 0.21 | inhibited | 0.40 ± 0.07(***) | 0.39 and 0.35 and 0.43 | 0.50 ± 0.03(***) | 0.51 and 0.49 and 0.47 and 0.54 | 0.28 ± 0.07(***) | 0.27 and 0.13 and 0.33 and 0.32 and 0.29 and 0.31 | 0.38 ± 0.11 (***) |
